Results published in US8841321B2, “Quinoline derivatives as antibacterial agents” (Janssen Pharmaceutica NV, priority 2005, dated 2014).
In brackets after ≈: the same amount, converted by molar mass.

What was measured:
Assay in all cases: Microtitre plate assay, IC90 determination
Format in all cases: cell-based
[1] = tested on: STA 29213 (Staphylococcus aureus (ATCC29213)); conditions: for IC90: Staphylococcus aureus, ATCC29213, Staphylococcus aureus (ATCC29213), read-out: IC90 (μg/ml) STA 29213; for IC90 (μg/ml) STA 29213: Staphylococcus aureus (ATCC29213)
Procedure, shortened: (§1)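 Growth-inhibition endpoint: resazurin added 3 h after inoculation, plates incubated overnight, fluorescence at 530/590 nm after 24 h at 37 °C. Inocula of roughly 10–60 CFU per well in Mueller-Hinton medium; compounds titrated five-fold. IC90 reported as μg/ml.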

[2] = tested on: SPN 6305 (Streptococcus pneumoniae (ATCC6305)); conditions: Streptococcus pneumoniae (ATCC6305)
Procedure, shortened: as §1

[3] = tested on: EFA 29212 (Enterococcus faecalis (ATCC29212)); conditions: for IC90 (μg/ml) EFA 29212: Enterococcus faecalis (ATCC29212); for IC90: Enterococcus faecalis, ATCC29212, Enterococcus faecalis (ATCC29212), read-out: IC90 (μg/ml) EFA 29212
[4] = tested on: SPY 8668 (Streptococcus pyogens (ATCC8668)); conditions: for IC90 (μg/ml) SPY 8668: Streptococcus pyogens (ATCC8668); for IC90: Streptococcus, ATCC8668, Streptococcus pyogens (ATCC8668), read-out: IC90 (μg/ml) SPY 8668
[5] = tested on: PAE 27853 (Pseudomonas aeruginosa (ATCC27853)); conditions: for IC90 (μg/ml) PAE 27853: Pseudomonas aeruginosa (ATCC27853); for IC90: Pseudomonas aeruginosa, ATCC27853, Pseudomonas aeruginosa (ATCC27853), read-out: IC90 (μg/ml) PAE 27853
[6] = tested on: STA RMETH (methicilline resistant Staphylococcus aureus (MRSA), a clinical isolate from the University of Antwerp); conditions: for IC90: Staphylococcus aureus, MRSA, read-out: IC90 (μg/ml) STA RMETH
[7] = tested on: LMO 49594 (Listeria monocytogenes (ATCC49594)); conditions: Listeria monocytogenes, ATCC49594, Listeria monocytogenes (ATCC49594); read-out: IC90 (μg/ml) LMO 49594
[8] = tested on: BSU 43639 (Bacillus subtilis (ATCC43639)); conditions: Bacillus subtilis, ATCC43639, Bacillus subtilis (ATCC43639); read-out: IC90 (μg/ml) BSU 43639

Row | Compound | IC90 [1] [µg/mL] | IC90 (μg/ml) SPN 6305 [2] [µg/mL] | IC90 (μg/ml) EFA 29212 [3] [µg/mL] | IC90 (μg/ml) SPY 8668 [4] [µg/mL] | IC90 (μg/ml) PAE 27853 [5] [µg/mL] | IC90 [6] [µg/mL] | IC90 (μg/ml) STA 29213 [1] [µg/mL] | IC90 (μg/ml) STA RMETH [6] [µg/mL] | IC90 [7] [µg/mL] | IC90 [8] [µg/mL] | IC90 [3] [µg/mL] | IC90 [4] [µg/mL] | IC90 [5] [µg/mL]
1 | COc1nc2ccc(-c3ccccc3)cc2cc1C(c1ccccc1)C(O)(CCCCN(C)C)c1ccc2ccccc2c1 (stereo not drawn) [Compound 40] | 7.3 (≈ 12.6 µM) | 1.8 (≈ 3.1 µM) | 1.8 (≈ 3.1 µM) | 1.8 (≈ 3.1 µM) | 1.8 (≈ 3.1 µM) | 5.2 (≈ 8.95 µM) |  |  |  |  |  |  | 
2 | COc1nc2ccc(Br)cc2cc1C(c1ccccc1)C(O)(CCCCN1CCN(C)CC1)CCc1ccccc1 (single isomer, unassigned) [Compound 138] |  | 2.19 (≈ 3.55 µM) | 1.74 (≈ 2.82 µM) | 0.87 (≈ 1.41 µM) | 2.19 (≈ 3.55 µM) |  | 2.45 (≈ 3.97 µM) | 12.3 (≈ 19.9 µM) |  |  |  |  | 
3 | COc1nc2ccc(-c3ccccc3)cc2cc1C(c1ccccc1)C(O)(CCCCN(C)C)c1ccc2ccccc2c1 (stereo not drawn) [Compound 41] |  | 9.2 (≈ 15.8 µM) | 9.2 (≈ 15.8 µM) | 9.2 (≈ 15.8 µM) | 36.6 (≈ 63 µM) |  | 9.2 (≈ 15.8 µM) | 9.2 (≈ 15.8 µM) | 9.2 (≈ 15.8 µM) | 9.2 (≈ 15.8 µM) |  |  | 
4 | COc1nc2cccc(Br)c2cc1C(c1ccccc1)C(O)(CCCCN(C)C)c1ccc2ccccc2c1 (stereo not drawn) [Compound 29] | 1.9 (≈ 3.26 µM) | 9.3 (≈ 15.9 µM) |  |  |  |  |  | 2.3 (≈ 3.94 µM) |  |  | 46.3 (≈ 79.3 µM) | 20.7 (≈ 35.5 µM) | 20.7 (≈ 35.5 µM)
5 | COc1nc2ccc(Br)cc2cc1C(c1ccccc1)C(O)(CCCCN(C)C)c1ccc2cc(Br)ccc2c1 (stereo not drawn) [Compound 7] | 2.1 (≈ 3.17 µM) | 2.4 (≈ 3.62 µM) | 10.5 (≈ 15.8 µM) |  |  |  |  | 10.5 (≈ 15.8 µM) | 10.5 (≈ 15.8 µM) | 10.5 (≈ 15.8 µM) |  | 10.5 (≈ 15.8 µM) | 10.5 (≈ 15.8 µM)
6 | COc1ccc(C(O)(CCCCN2CCCCC2)C(c2ccc(C)cc2)c2cc3cc(Br)ccc3nc2OC)cc1 (single isomer, unassigned) [Compound 168] |  | 2.46 (≈ 3.98 µM) | 1.95 (≈ 3.16 µM) | 1.95 (≈ 3.16 µM) | 1.95 (≈ 3.16 µM) |  | 2.19 (≈ 3.55 µM) |  |  |  |  |  | 
7 | COc1nc2ccccc2cc1C(c1ccc(Br)cc1)C(O)(CCCCN(C)C)c1ccc2ccccc2c1 (stereo not drawn) [Compound 64] |  | 1.85 (≈ 3.17 µM) |  |  |  |  | 1.85 (≈ 3.17 µM) |  |  |  | 1.85 (≈ 3.17 µM) | 1.85 (≈ 3.17 µM) | 0.46 (≈ 0.788 µM)

Other lines, results leading:

Row | IC90 [1] [µg/mL] | IC90 (μg/ml) SPN 6305 [2] [µg/mL] | IC90 (μg/ml) EFA 29212 [3] [µg/mL] | IC90 (μg/ml) SPY 8668 [4] [µg/mL] | IC90 (μg/ml) PAE 27853 [5] [µg/mL] | IC90 [6] [µg/mL] | IC90 (μg/ml) STA 29213 [1] [µg/mL] | IC90 (μg/ml) STA RMETH [6] [µg/mL] | IC90 [7] [µg/mL] | IC90 [8] [µg/mL] | IC90 [3] [µg/mL] | IC90 [4] [µg/mL] | IC90 [5] [µg/mL] | Compound
8 |  | 1.73 (≈ 3.16 µM) | 8.68 (≈ 15.9 µM) | 3.88 (≈ 7.09 µM) | 8.68 (≈ 15.9 µM) |  | 1.73 (≈ 3.16 µM) | 10.92 (≈ 19.9 µM) |  |  |  |  |  | CNCCCCC(O)(CCc1ccccc1)C(c1ccccc1)c1cc2cc(Br)ccc2nc1OC (stereo not drawn) [Compound 71]
9 |  | 1.74 (≈ 3.17 µM) | 6.92 (≈ 12.6 µM) | 1.74 (≈ 3.17 µM) | 1.95 (≈ 3.55 µM) |  | 1.74 (≈ 3.17 µM) | 12.3 (≈ 22.4 µM) |  |  |  |  |  | CSc1nc2ccc(Br)cc2cc1C(c1ccccc1)C(O)(CCCCN(C)C)c1ccccc1 (stereo not drawn) [Compound 1]
10 | 1.73 (≈ 3.16 µM) | 0.35 (≈ 0.639 µM) | 2.18 (≈ 3.98 µM) | 1.73 (≈ 3.16 µM) | 1.73 (≈ 3.16 µM) | 10.9 (≈ 19.9 µM) |  |  |  |  |  |  |  | CNCCCCC(O)(CCc1ccccc1)C(c1ccccc1)c1cc2cc(Br)ccc2nc1OC (stereo not drawn) [Compound 70]
11 |  | 2.29 (≈ 3.98 µM) | 9.12 (≈ 15.8 µM) | 5.13 (≈ 8.91 µM) | 9.12 (≈ 15.8 µM) |  | 5.76 (≈ 10 µM) |  |  |  |  |  |  | COc1nc2ccc(Br)cc2cc1C(c1ccccc1)C(O)(CCCCN(C)C)CCCc1ccccc1 (single isomer, unassigned) [Compound 145]
12 |  | 1.8 (≈ 2.82 µM) | 10.11 (≈ 15.9 µM) | 2.02 (≈ 3.17 µM) | 2.02 (≈ 3.17 µM) |  | 10.11 (≈ 15.9 µM) |  |  |  |  |  |  | COc1nc2ccc(Br)cc2cc1C(c1ccccc1)C(O)(CCCCN1CCC(C)CC1)c1ccc2ccccc2c1 (racemic) [Compound 102]
